Results on four compounds are retold here after US11332564B2, “Method to produce stimuli sensitive UV absorbing polymers” (GALAXY SURFACTANTS LTD, priority 2020, dated 2022).

Data set [1] is described as follows: Photo-degradation study of cream formulations under UV lamp, 200 h. The data set is classed as physicochemical. Particulars: Cream Example VII (without copolymer of Example II). The method, then: Example VII is a cream formulation with OMC and Avobenzone is exposed for 200 h using UV light from a UV lamp.
The conditions of data set [2]: commercial UV absorbers; cited from earlier work.
Data set [3] in a line: Photo-degradation study of cream formulations under UV lamp, 200 h. The data set is classed as physicochemical. Particulars: Cream of Example VIII (10% copolymer of Example II).
Data set [4] in a line: UV absorption (E1%cm, extinction, λmax) by absorption spectrophotometer. Particulars: for E1%cm: at λmax 310 nm. It counts as physicochemical. The procedure: (§1) p-Methoxy cinnamido propyl dimethyl amine was obtained from Galaxy Surfactants Ltd., Mumbai. Vinyl benzyl chloride was purchased from Seimi Chemical Co., Ltd. Japan. N, N-Diethyl acrylamide was obtained from Sigma Aldrich, India. N-isoproyl acrylamide was synthesized as per the literature procedure (Polym. J., Vol. 25, No. 6, pp. 561-567). Surface tension was measured on Kruss tensiometer by Wilhelmy plate method. Intrinsic viscosity was measured by Ubbelohde viscometer. NMR spectroscopy was done on 400 MHz Bruker machine. Infrared spectra were recorded on FTIR from Perkin Elmer (Spectrum 100). UV Varian's, Cary 50 absorption spectrophotometer was used for UV absorption data.

Data set [5] in a line: Surface tension, Kruss tensiometer, Wilhelmy plate method. It counts as physicochemical. The procedure: as §1

Regarding `COc1ccc(C(=O)CC(=O)c2ccc(C(C)(C)C)cc2)cc1` [Avobenzone], in data set [1], the “Component content, UV exposure 200 h” value stood at 0.1%; the “Component content, Unexposed” value is on record as 2.0%; the “Component content, Zero h” value is reported as 2.0%. For the same compound, the λmax in data set [2] was 360 nm. Further, in data set [3], the “Component content, UV exposure 200 h” value is on record as 1.5%; the “Component content, Unexposed” value is recorded as 2.0%; the “Component content, Zero h” value is listed as 2.0%.

`COc1ccc(C=CC(=O)NCCCN(C)C)cc1` [Formula IIa, p-methoxy cinnamidopropyl dimethyl amine]: the molar extinction coefficient in data set [4] (at 290 nm) is 24,000.

Take `C=Cc1ccc(C[N+](C)(C)CCCNC(=O)/C=C/c2ccc(OC)cc2)cc1` [Formula IVa, p-methoxy cinnamido propyl p-vinyl benzyl dimethyl ammonium chloride]: the E1%cm in data set [4] stood at 568; in data set [4] (listed as Step (a) of Example I), 463. In data set [5], the “Surface tension of 1% aqueous solution” value came out at 42.6 mN/m.

As to `CCCCC(CC)COC(=O)C=Cc1ccc(OC)cc1` (stereo not drawn) [OMC, Octyl methoxy cinnamate], in data set [1], the “Component content, UV exposure 200 h” value is 2%; the “Component content, Unexposed” value was determined as 6.0%; the “Component content, Zero h” value is reported as 6%. The λmax in data set [2] is on record as 302 nm. Also, in data set [3], the “Component content, UV exposure 200 h” value is recorded as 4.5%; the “Component content, Unexposed” value turned out to be 6.0%; the “Component content, Zero h” value came out at 6.0%.
